Reference: US8183351B2, “Avermectin derivatives” (Bayer Cropscience AG, priority 2006, dated 2012)

Tests used:
[1] = tested on: larvae of the mustard beetle (Phaedon cochleariae); assay: Phaedon test (PHAECO spray treatment); format: in vivo; conditions: Example G; 4 ppm active compound; sprayed Chinese cabbage discs
Experimental: Phaedon Test (PHAECO Spray Treatment)
• Solvents: 78 parts by weight of acetone • 1.5 parts by weight of dimethylformamide • Emulsifier: 0.5 part by weight of alkylaryl polyglyycol ether
After the desired period of time, the effect in % is determined. 100% means that all beetle larvae have been killed; 0% means that none of the beetle larvae have been killed.

[2] = tested on: caterpillars of the army worm (Spodoptera frugiperda); assay: Spodoptera frugiperda test (SPODFR spray treatment); format: in vivo; conditions: Example I; 4 ppm active compound; sprayed maize leaf discs
Experimental: Spodoptera frugiperda Test (SPODFR Spray Treatment)
• Solvents: 78.0 parts by weight of acetone • 1.5 parts by weight of dimethylformamide • Emulsifier: 0.5 part by weight of alkylaryl polyglyycol ether
After the desired period of time, the effect in % is determined. 100% means that all caterpillars have been killed; 0% means that none of the caterpillars have been killed.

Compound | Kill rate in % after 7 days [1] | Kill rate in % after 5 days [2]
CCCC(=O)OC1C(C)OC(O[C@@H]2/C(C)=C/C[C@@H]3C[C@@H](CC4(C=C[C@H](C)[C@@H]([C@@H](C)CC)O4)O3)OC(=O)C3C=C(C)[C@@H](O)[C@H]4OC/C(=C\C=C\[C@@H]2C)[C@@]34O)CC1OC (stereo partly shown) [Example 28] | 100% | 100%
CCCCC(=O)OC1C(C)OC(O[C@@H]2/C(C)=C/C[C@@H]3C[C@@H](CC4(C=C[C@H](C)[C@@H]([C@@H](C)CC)O4)O3)OC(=O)C3C=C(C)[C@@H](O)[C@H]4OC/C(=C\C=C\[C@@H]2C)[C@@]34O)CC1OC (stereo partly shown) [Example 29] | 100% | 100%
CC[C@H](C)[C@H]1OC2(C=C[C@@H]1C)C[C@@H]1C[C@@H](C/C=C(\C)[C@@H](OC3CC(OC)C(OC(=O)Cn4cncn4)C(C)O3)[C@@H](C)/C=C/C=C3\CO[C@@H]4[C@H](O)C(C)=CC(C(=O)O1)[C@]34O)O2 (stereo partly shown) [Example 32] | 100% | 100%
CC[C@H](C)[C@H]1OC2(C=C[C@@H]1C)C[C@@H]1C[C@@H](C/C=C(\C)[C@@H](OC3CC(OC)C(OC(=O)Cc4cccnc4)C(C)O3)[C@@H](C)/C=C/C=C3\CO[C@@H]4[C@H](O)C(C)=CC(C(=O)O1)[C@]34O)O2 (stereo partly shown) [Example 33] | 100% | 100%
CC[C@H](C)[C@H]1OC2(C=C[C@@H]1C)C[C@@H]1C[C@@H](C/C=C(\C)[C@@H](OC3CC(OC)C(OC(=O)Cn4cccn4)C(C)O3)[C@@H](C)/C=C/C=C3\CO[C@@H]4[C@H](O)C(C)=CC(C(=O)O1)[C@]34O)O2 (stereo partly shown) [Example 35] | 100% | 100%
CC[C@H](C)[C@H]1OC2(C=C[C@@H]1C)C[C@@H]1C[C@@H](C/C=C(\C)[C@@H](OC3CC(OC)C(OC(=O)C4(F)CC4)C(C)O3)[C@@H](C)/C=C/C=C3\CO[C@@H]4[C@H](O)C(C)=CC(C(=O)O1)[C@]34O)O2 (stereo partly shown) [Example 36] | 100% | 83%
CCC(C)C1OC2(C=CC1C)CC1CC(CC=C(C)C(OC3CC(OC)C(OC(=O)C(C)NC(=O)OC(C)(C)C)C(C)O3)C(C)C=CC=C3COC4C(O)C(C)=CC(C(=O)O1)C34O)O2 (stereo not shown) [Example 40] | 100% | 100%
CC[C@H](C)[C@H]1OC2(C=C[C@@H]1C)C[C@@H]1C[C@@H](C/C=C(\C)[C@@H](OC3CC(OC)C(OC(=O)Cn4cnnn4)C(C)O3)[C@@H](C)/C=C/C=C3\CO[C@@H]4[C@H](O)C(C)=CC(C(=O)O1)[C@]34O)O2 (stereo partly shown) [Example 42] | 83% | 100%
CC[C@H](C)[C@H]1OC2(C=C[C@@H]1C)C[C@@H]1C[C@@H](C/C=C(\C)[C@@H](OC3CC(OC)C(OC(=O)CN4C(=O)CCC4=O)C(C)O3)[C@@H](C)/C=C/C=C3\CO[C@@H]4[C@H](O)C(C)=CC(C(=O)O1)[C@]34O)O2 (stereo partly shown) [Example 45] | 100% | 100%
CC[C@H](C)[C@H]1OC2(C=C[C@@H]1C)C[C@@H]1C[C@@H](C/C=C(\C)[C@@H](OC3CC(OC)C(OC(=O)Cn4ccc(C(F)(F)F)n4)C(C)O3)[C@@H](C)/C=C/C=C3\CO[C@@H]4[C@H](O)C(C)=CC(C(=O)O1)[C@]34O)O2 (stereo partly shown) [Example 59] | 100% | 100%
CC[C@H](C)[C@H]1OC2(C=C[C@@H]1C)C[C@@H]1C[C@@H](C/C=C(\C)[C@@H](OC3CC(OC)C(OC(=O)C(C)c4ccc(Cl)nc4)C(C)O3)[C@@H](C)/C=C/C=C3\CO[C@@H]4[C@H](O)C(C)=CC(C(=O)O1)[C@]34O)O2 (stereo partly shown) [Example 69] | 100% | 100%
CC[C@H](C)[C@H]1OC2(C=C[C@@H]1C)C[C@@H]1C[C@@H](C/C=C(\C)[C@@H](OC3CC(OC)C(OC(=O)Cc4cccn4C)C(C)O3)[C@@H](C)/C=C/C=C3\CO[C@@H]4[C@H](O)C(C)=CC(C(=O)O1)[C@]34O)O2 (stereo partly shown) [Example 71] | 100% | 100%
CC[C@H](C)[C@H]1OC2(C=C[C@@H]1C)C[C@@H]1C[C@@H](C/C=C(\C)[C@@H](OC3CC(OC)C(OC(=O)C(C)C#N)C(C)O3)[C@@H](C)/C=C/C=C3\CO[C@@H]4[C@H](O)C(C)=CC(C(=O)O1)[C@]34O)O2 (stereo partly shown) [Example 72] | 100% | 100%
CN(C)C1(C)CC1 [Example 74] | 100% | 100%
CC[C@H](C)[C@H]1OC2(C=C[C@@H]1C)C[C@@H]1C[C@@H](C/C=C(\C)[C@@H](OC3CC(OC)C(OC(=O)CN4CCOCC4=O)C(C)O3)[C@@H](C)/C=C/C=C3\CO[C@@H]4[C@H](O)C(C)=CC(C(=O)O1)[C@]34O)O2 (stereo partly shown) [Example 75] | 100% | 100%
CC[C@H](C)[C@H]1OC2(C=C[C@@H]1C)C[C@@H]1C[C@@H](C/C=C(\C)[C@@H](OC3CC(OC)C(OC(=O)CN4CCN(C)CC4)C(C)O3)[C@@H](C)/C=C/C=C3\CO[C@@H]4[C@H](O)C(C)=CC(C(=O)O1)[C@]34O)O2 (stereo partly shown) [Example 76] | 100% | 100%
CC[C@H](C)[C@H]1OC2(C=C[C@@H]1C)C[C@@H]1C[C@@H](C/C=C(\C)[C@@H](OC3CC(OC)C(OC(=O)CN4CCN(Cc5ccccc5)CC4)C(C)O3)[C@@H](C)/C=C/C=C3\CO[C@@H]4[C@H](O)C(C)=CC(C(=O)O1)[C@]34O)O2 (stereo partly shown) [Example 78] | 100% | 100%
CC[C@H](C)[C@H]1OC2(C=C[C@@H]1C)C[C@@H]1C[C@@H](C/C=C(\C)[C@@H](OC3CC(OC)C(OC(=O)CN4CCSCC4)C(C)O3)[C@@H](C)/C=C/C=C3\CO[C@@H]4[C@H](O)C(C)=CC(C(=O)O1)[C@]34O)O2 (stereo partly shown) [Example 80] | 100% | 100%
CCC(C)C1OC2(C=CC1C)CC1CC(CC=C(C)C(OC3CC(OC)C(OC(=O)C(C)N(C)C)C(C)O3)C(C)C=CC=C3COC4C(O)C(C)=CC(C(=O)O1)C34O)O2 (stereo not shown) [Example 81] | 100% | 100%
CC[C@H](C)[C@H]1OC2(C=C[C@@H]1C)C[C@@H]1C[C@@H](C/C=C(\C)[C@@H](OC3CC(OC)C(OC(=O)C(C)CN(C)C)C(C)O3)[C@@H](C)/C=C/C=C3\CO[C@@H]4[C@H](O)C(C)=CC(C(=O)O1)[C@]34O)O2 (stereo partly shown) [Example 82] | 100% | 100%
CC[C@H](C)[C@H]1OC2(C=C[C@@H]1C)C[C@@H]1C[C@@H](C/C=C(\C)[C@@H](OC3CC(OC)C(OC(=O)CCN4CCOCC4)C(C)O3)[C@@H](C)/C=C/C=C3\CO[C@@H]4[C@H](O)C(C)=CC(C(=O)O1)[C@]34O)O2 (stereo partly shown) [Example 83] | 100% | 100%
CC[C@H](C)[C@H]1OC2(C=C[C@@H]1C)C[C@@H]1C[C@@H](C/C=C(\C)[C@@H](OC3CC(OC)C(OC(=O)C4CCCN(C)C4)C(C)O3)[C@@H](C)/C=C/C=C3\CO[C@@H]4[C@H](O)C(C)=CC(C(=O)O1)[C@]34O)O2 (stereo partly shown) [Example 84] | 100% | 100%
CC[C@H](C)[C@H]1OC2(C=C[C@@H]1C)C[C@@H]1C[C@@H](C/C=C(\C)[C@@H](OC3CC(OC)C(OC(=O)CC4C(=O)NCCN4C)C(C)O3)[C@@H](C)/C=C/C=C3\CO[C@@H]4[C@H](O)C(C)=CC(C(=O)O1)[C@]34O)O2 (stereo partly shown) [Example 85] | 83% | 100%
CC[C@H](C)[C@H]1OC2(C=C[C@@H]1C)C[C@@H]1C[C@@H](C/C=C(\C)[C@@H](OC3CC(OC)C(OC(=O)CCN4CCCCC4)C(C)O3)[C@@H](C)/C=C/C=C3\CO[C@@H]4[C@H](O)C(C)=CC(C(=O)O1)[C@]34O)O2 (stereo partly shown) [Example 87] | 100% | 100%
CC[C@H](C)[C@H]1OC2(C=C[C@@H]1C)C[C@@H]1C[C@@H](C/C=C(\C)[C@@H](OC3CC(OC)C(OC(=O)CCN4CCN(C)CC4)C(C)O3)[C@@H](C)/C=C/C=C3\CO[C@@H]4[C@H](O)C(C)=CC(C(=O)O1)[C@]34O)O2 (stereo partly shown) [Example 88] | 100% | 100%
CC[C@H](C)[C@H]1OC2(CC[C@@H]1C)C[C@@H]1C[C@@H](C/C=C(\C)[C@@H](OC3CC(OC)C(OC(=O)CN)C(C)O3)[C@@H](C)/C=C/C=C3\CO[C@@H]4[C@H](O)C(C)=CC(C(=O)O1)[C@]34O)O2 (stereo partly shown) [Example 103] | 100% | 100%
CC[C@H](C)[C@H]1OC2(C=C[C@@H]1C)C[C@@H]1C[C@@H](C/C=C(\C)[C@@H](OC3CC(OC)C(OC(=O)C(C)N4CCNCC4)C(C)O3)[C@@H](C)/C=C/C=C3\CO[C@@H]4[C@H](O)C(C)=CC(C(=O)O1)[C@]34O)O2 (stereo partly shown) [Example 105] | 100% | 100%
CC[C@H](C)[C@H]1OC2(C=C[C@@H]1C)C[C@@H]1C[C@@H](C/C=C(\C)[C@@H](OC3CC(OC)C(OC(=O)C(C)N4CCOCC4)C(C)O3)[C@@H](C)/C=C/C=C3\CO[C@@H]4[C@H](O)C(C)=CC(C(=O)O1)[C@]34O)O2.O=C(O)c1ccccc1 (stereo partly shown) [Example 106, 4′-O-(2-Morpholin-4-ylpropanoyl)-avermectin B1 monosaccharide benzoate] | 100% | 100%
CC[C@H](C)[C@H]1OC2(C=C[C@@H]1C)C[C@@H]1C[C@@H](C/C=C(\C)[C@@H](OC3CC(OC)C(OC(=O)CN4CCNCC4)C(C)O3)[C@@H](C)/C=C/C=C3\CO[C@@H]4[C@H](O)C(C)=CC(C(=O)O1)[C@]34O)O2.O=C(O)c1ccccc1.O=C(O)c1ccccc1 (stereo partly shown) [Example 107, 4′-O-(piperazin-1-ylacetyl)-avermectin B1 monosaccharide dibenzoate] | 100% | 100%
